Read-outs that look alike come from different tables or passages of the source.
What was measured:
β-catenin = assay: Immunohistochemistry of CRC patient tumor tissue for β-catenin; assay type: in vivo, human; details: FIG. 4A
Method: CRC patient's archival tumor tissue samples were analyzed through immunohistochemistry (IHC) using labeled antibodies against β-catenin. […] For instance, close to 40% of the patients with high nuclear β-catenin levels before treatment survived longer than 100 weeks whereas none of those with high levels of membranous β-catenin survived beyond 25 weeks. This further confirms that the Compound of the Invention disrupts or somehow modulates the β-catenin function, and that the β-catenin pathway is implicated in colorectal cancers.

[1] = Phase I dose escalation trial: pharmacokinetic profile; assay type: in vivo, human; details: for Tmax / AUC(0-t) / concentration at 24 h / half-life / Cmax / AUC: human, plasma, oral, patient plasma; for AUC(0-t): read-out: AUC0-24; for concentration at 24 h: read-out: C24h; for half-life: read-out: T1/2,t (converted)
Method: Pharmacokinetics profile with oral bid dosing was also studied. The plasma concentration of the drug reached several folds over the efficacious concentration (in vitro IC50) as illustrated in Table 8.
To maintain drug plasma concentration at or above the efficacious level for a desirable duration and to further increase peak plasma concentration, we studied the pharmacokinetics of a 500 mg BID regimen (at 4 hour interval between two doses on the same day or “q4h”), and compared it to that of a 500 mg QD regimen (FIG. 1). […] In another suitable dosing regimen, 500 mg of Compound 1 were administered three times a day (TID) to human subjects.

[2] = Phase 1 extension study of higher strength capsule (DP2A): pharmacokinetics; assay type: in vivo; details: human, plasma, oral, 500 mg; for AUC(0-t): read-out: AUC0-24
Text: However, with the higher strength capsules, we observed worsening gastrointestinal adverse effects including nausea, vomiting, and diarrhea in patients.
Additional studies were run using an oral formulation of the Compound of the Invention, specifically a higher strength capsule formulation (DP2A). As described herein, the Compound of the Invention blocks cancer stem cell (CSC) self-renewal and induces cell death in CSC as well as non-stem cancer cells by inhibiting Stat3, β-catenin, and Nanog pathways, and has shown potent anti-tumor and anti-metastatic activities pre-clinically. […] The studies described herein were designed as a phase 1 extension study to evaluate a formulation designed for pivotal trials to determine pharmacokinetics (PK) in patients with advanced cancer.
On Day 1, patients received a single 500 mg dose of an oral administration formulation of the Compound of the Invention (DP1). On Day 4 and Day 8, a higher strength capsule designed for pivotal trials (DP2A) was given with fasting then fed conditions. DP2A was then administered daily until disease progression or unacceptable toxicity. Endpoints were safety, PK and preliminary anticancer activity.

[3] = 20 mg, Total Daily Dose 20 (mg), qd
[4] = 40 mg, Total Daily Dose 40 (mg), qd
[5] = 80 mg, Total Daily Dose 80 (mg), bid q4h
[6] = 80 mg, Total Daily Dose 80 (mg), qd
[7] = 160 mg, Total Daily Dose 160 (mg), bid q4h
[8] = 320 mg, Total Daily Dose 320 (mg), bid q4h
[9] = 400 mg, Total Daily Dose 400 (mg), bid q4h
[10] = 600 mg, Total Daily Dose 600 (mg), bid q4h
[11] = 800 mg, Total Daily Dose 800 (mg), bid q4h
[12] = 1000 mg, Total Daily Dose 1000 (mg), bid q4h
[13] = 1000 mg, Total Daily Dose 1000 (mg), bid q6h
[14] = 1400 mg, Total Daily Dose 1400 (mg), bid q4h
[15] = 1500 mg, Total Daily Dose 1500 (mg), tid q4h
[16] = 2000 mg, Total Daily Dose 2000 (mg), bid q4h
[17] = Patient 0053, single 500 mg dose - fed
[18] = Patient 0054, single 500 mg dose - fed
[19] = Patient 0061, single 500 mg dose - fed
[20] = Patient 0070, single 500 mg dose - fed

CC(=O)c1cc2c(o1)C(=O)c1ccccc1C2=O [Compound 1, 2-acetylnaphtho[2,3-b]furan-4,9-dione]
accumulation of β-catenin in cell nucleus in tumor tissues (IHC) (β-catenin): effective in removing or preventing the accumulation of β-catenin in cell nucleus | patient exposure, 500 mg three times a day (TID) versus twice daily ([1]; human subjects): not significantly improved | Tmax [1, 3]: 3 h | AUC(0-t) [1, 3]: 2.01 µM·h | concentration at 24 h [1, 3]: 30 nM | half-life [1, 3]: 18.5 h | Cmax [1, 4]: 500 nM | Tmax [1, 4]: 0.5 h | AUC(0-t) [1, 4]: 3.44 µM·h | concentration at 24 h [1, 4]: 30 nM | half-life [1, 4]: 4.5 h | AUC [1, 5]: 8.13 µM·h | Cmax [1, 5]: 900 nM | Tmax [1, 5]: 8.1 h | AUC(0-t) [1, 5]: 7.95 µM·h | concentration at 24 h [1, 5]: 30 nM | half-life [1, 5]: 3.6 h | Cmax [1, 6]: 2240 nM | Tmax [1, 6]: 1.5 h | AUC(0-t) [1, 6]: 12.8 µM·h | concentration at 24 h [1, 6]: 70 nM | half-life [1, 6]: 5.2 h | Cmax [1, 7]: 1330 nM | Tmax [1, 7]: 3.9 h | AUC [1, 8]: 38.3 µM·h | Cmax [1, 8]: 2920 nM | Tmax [1, 8]: 3.8 h | AUC(0-t) [1, 8]: 33.1 µM·h | concentration at 24 h [1, 8]: 240 nM | half-life [1, 8]: 5.7 h | AUC [1, 9]: 48.2 µM·h | Cmax [1, 9]: 3750 nM | Tmax [1, 9]: 7.9 h | AUC(0-t) [1, 9]: 40.2 µM·h | concentration at 24 h [1, 9]: 620 nM | half-life [1, 9]: 6.9 h | AUC [1, 10]: 37.1 µM·h | Cmax [1, 10]: 2670 nM | Tmax [1, 10]: 3.2 h | AUC(0-t) [1, 10]: 27.8 µM·h | concentration at 24 h [1, 10]: 420 nM | half-life [1, 10]: 9 h | AUC [1, 11]: 27 µM·h | Cmax [1, 11]: 3040 nM | Tmax [1, 11]: 4.3 h | AUC(0-t) [1, 11]: 26.1 µM·h | concentration at 24 h [1, 11]: 160 nM | half-life [1, 11]: 4 h | AUC [1, 12]: 50.7 µM·h | Cmax [1, 12]: 4970 nM | Tmax [1, 12]: 6.6 h | AUC(0-t) [1, 12]: 45.1 µM·h | concentration at 24 h [1, 12]: 290 nM | half-life [1, 12]: 6.6 h | AUC [1, 13]: 22.9 µM·h | Cmax [1, 13]: 1360 nM | Tmax [1, 13]: 5.7 h | AUC(0-t) [1, 13]: 15.8 µM·h | concentration at 24 h [1, 13]: 330 nM | half-life [1, 13]: 12.7 h | AUC [1, 14]: 45 µM·h | Cmax [1, 14]: 2050 nM | Tmax [1, 14]: 2.9 h | AUC(0-t) [1, 14]: 28.2 µM·h | concentration at 24 h [1, 14]: 650 nM | half-life [1, 14]: 13.6 h | AUC [1, 15]: 59.9 µM·h | Cmax [1, 15]: 3750 nM | Tmax [1, 15]: 7.3 h | AUC(0-t) [1, 15]: 46.4 µM·h | concentration at 24 h [1, 15]: 940 nM | half-life [1, 15]: 8.2 h | AUC [1, 16]: 45.8 µM·h | Cmax [1, 16]: 1690 nM | Tmax [1, 16]: 6.3 h | AUC(0-t) [1, 16]: 25.9 µM·h | concentration at 24 h [1, 16]: 800 nM | half-life [1, 16]: 17.2 h | pharmacokinetics, 500 mg BID (q4h) versus 500 mg QD ([1]; patients, FIG. 1): no significant difference | Cmax [2, 17]: 6610 nM | AUC(0-t) [2, 17]: 79.6 µM·h | Cmax [2, 18]: 6250 nM | AUC(0-t) [2, 18]: 49.8 µM·h | Cmax [2, 19]: 1540 nM | AUC(0-t) [2, 19]: 10.6 µM·h | Cmax [2, 20]: 2250 nM | AUC(0-t) [2, 20]: 20.1 µM·h
